Assay results as given in PubChem BioAssay AID1963976 (Molecular Pharmacology Branch, DTP, NCI, 2024).

Tested on: 435261-313-R-J1-PDC tumor spheroid viability
Test: Anticancer human tumor 435261-313-R-J1-PDC patient-derived colon adenocarcinoma cell line growth inhibition [PI3K]
Settings: spheroids with HUVEC and MSC; for IC50: curve of first compound; for viability, T/C: stronger effect = lower value
Source text: Combinatorial screen of targeted agents with the PI3K inhibitors inavolisib, alpelisib, duvelisib, and copanlisib in multi-cell type tumor spheroids
A high-throughput screen of multi-cell type tumor spheroids was designed to identify active combinations of targeted small molecules and PI3K pathway inhibitors. Complex spheroids include a stromal component modeled by human endothelial cells (HUVEC) and fibroblasts modeled by human mesenchymal stem cells (MSCs). The concentration ranges selected for each drug and investigational agent were based upon clinically achievable concentrations if the clinical Cmax of the agent was known.
Compounds. The drugs and investigational agents: inavolisib (NSC800729), alpelisib (NSC765974), duvelisib (NSC772469), copanlisib (NSC816437), ipatasertib (NSC767898), afuresertib (NSC778305), talazoparib (NSC767125), sapanisertib (NSC764658), selumetinib (NSC741078), tovorafenib (DAY101, NSC766906), vemurafenib (NSC761431), ravoxertinib (NSC781343), sotorasib (NSC818433), MRTX1133 (NSC 836407), abemaciclib (NSC 768073), palbociclib (NSC758247), venetoclax (NSC 766270), SY5609 (NSC837396), enzalutamide (NSC755605), and darolutamide (NSC825331), were obtained from the National Cancer Institute (NCI) Developmental Therapeutics Program Chemical Repository. The FDA-approved anticancer drug set is available from the NCI Developmental Therapeutics Program. […] The stock solutions were prepared in dimethyl sulfoxide (DMSO, Sigma-Aldrich, St. Louis, MO, cat. D2650) at 800-fold the tested concentration and stored at -70 degrees C prior to their use. All drugs and investigational agents were tested over a range starting from a high concentration at or near the clinical Cmax and decreasing in half-log increments. If the clinical Cmax for an agent had not been determined, the highest concentration tested was 10 microM.
Cell Culture. All cells were maintained in an incubator at 37 degrees C and 5% CO2 with 95% humidity. The PDC lines were cultured according to standard operating procedures established by the NCI PDMR (https://pdmr.cancer.gov/sops/default.htm). All PDCs were thawed and cultured in Matrigel-coated flasks prepared with a working solution of 1X Ham's F-12 nutrient mix, without supplementation (Invitrogen, Waltham, MA, cat. 11765054), 100 U/mL penicillin-streptomycin (Invitrogen, cat. 15140122), and 2.5% Matrigel (Corning Inc., Corning, NY, cat. 354248) for the first three passages. The 354836-022-R-J1-PDC, 475296-252-R-J1-PDC, and 997726-040-R-J2-PDC lines were cultured in 6A media, which includes advanced DMEM/F-12 (Thermo Fisher Scientific, cat. 12634028), 10 mM HEPES (Thermo Fisher Scientific, cat. 15630080), 1X GlutaMAX supplement (Thermo Fisher Scientific, cat. 35050061), 0.1 mg/mL primocin (InvivoGen, San Diego, CA, cat. ant-pm-2), 10% defined fetal bovine serum, heat inactivated (HyClone Laboratories Inc., Logan, UT, cat. SH30070.03HI), 50% L-WRN conditioned media (ATCC, cat. CRL-3276), 1.25 mM N-Acetyl-L-cysteine (Sigma-Aldrich, cat. A9165), 10 mM nicotinamide (Sigma-Aldrich, cat. N0636), 1X B-27 supplement (Thermo Fisher Scientific, cat. 17504044), 1X N-2 supplement (Thermo Fisher Scientific, cat. 17502048), and 10 microM Y-27632 dihydrochloride (Tocris Bioscience, Bristol, United Kingdom, cat. 1254). The 624824-186-R-J2-PDC line was cultured in 6C/Colon 1B media, which includes all 6A media components plus 50 ng/mL human EGF recombinant protein (Thermo Fisher Scientific, cat. PHG0311). […]
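Also: spheroids exposed to compounds for 7 days.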

C[C@@H](NC(=O)c1ncnc(N)c1Cl)c1ncc(C(=O)Nc2cc(C(F)(F)F)c(Cl)cn2)s1 + COc1c(OCCCN2CCOCC2)ccc2c3n(c(=NC(=O)c4cnc(N)nc4)nc12)CCN3
IC50 (second compound 0.00316 µM): > 10000 nM | IC50 (second compound 0.01 µM): > 10000 nM | IC50 (second compound 0.0316 µM): < 31.6 nM | IC50 (second compound 0.1 µM): < 31.6 nM | IC50 (second compound 0.316 µM): < 31.6 nM | IC50 (second compound 1 µM): < 31.6 nM | viability, T/C (second compound 0.00316 µM, first compound 0.0316 µM): 133% | viability, T/C (second compound 0.00316 µM, first compound 0.1 µM): 138% | viability, T/C (second compound 0.00316 µM, first compound 0.316 µM): 70% | viability, T/C (second compound 0.00316 µM, first compound 1 µM): 120% | viability, T/C (second compound 0.00316 µM, first compound 3.16 µM): 99.2% | viability, T/C (second compound 0.00316 µM, first compound 10 µM): 78.6% | viability, T/C (second compound 0.01 µM, first compound 0.0316 µM): 66.2% | viability, T/C (second compound 0.01 µM, first compound 0.1 µM): 70.4% | viability, T/C (second compound 0.01 µM, first compound 0.316 µM): 69.8% | viability, T/C (second compound 0.01 µM, first compound 1 µM): 103% | viability, T/C (second compound 0.01 µM, first compound 3.16 µM): 63.3% | viability, T/C (second compound 0.01 µM, first compound 10 µM): 53.2% | viability, T/C (second compound 0.0316 µM, first compound 0.0316 µM): 32.7% | viability, T/C (second compound 0.0316 µM, first compound 0.1 µM): 33.6% | viability, T/C (second compound 0.0316 µM, first compound 0.316 µM): 47.5% | viability, T/C (second compound 0.0316 µM, first compound 1 µM): 30.1% | viability, T/C (second compound 0.0316 µM, first compound 3.16 µM): 37.8% | viability, T/C (second compound 0.0316 µM, first compound 10 µM): 17.5% | viability, T/C (second compound 0.1 µM, first compound 0.0316 µM): 20.4% | viability, T/C (second compound 0.1 µM, first compound 0.1 µM): 21.7% | viability, T/C (second compound 0.1 µM, first compound 0.316 µM): 22% | viability, T/C (second compound 0.1 µM, first compound 1 µM): 19.5% | viability, T/C (second compound 0.1 µM, first compound 3.16 µM): 18.2% | viability, T/C (second compound 0.1 µM, first compound 10 µM): 8.2% | viability, T/C (second compound 0.316 µM, first compound 0.0316 µM): 10.8% | viability, T/C (second compound 0.316 µM, first compound 0.1 µM): 13.1% | viability, T/C (second compound 0.316 µM, first compound 0.316 µM): 12.2% | viability, T/C (second compound 0.316 µM, first compound 1 µM): 13.3% | viability, T/C (second compound 0.316 µM, first compound 3.16 µM): 10.5% | viability, T/C (second compound 0.316 µM, first compound 10 µM): 3.91% | viability, T/C (second compound 1 µM, first compound 0.0316 µM): 5.11% | viability, T/C (second compound 1 µM, first compound 0.1 µM): 6.44% | viability, T/C (second compound 1 µM, first compound 0.316 µM): 7.13% | viability, T/C (second compound 1 µM, first compound 1 µM): 7.09% | viability, T/C (second compound 1 µM, first compound 3.16 µM): 5.4% | viability, T/C (second compound 1 µM, first compound 10 µM): 2.3%
